Reference: US20260297060A1, “COMPOUNDS FOR THE DEGRADATION OF MUTANT BRAF” (C4 THERAPEUTICS, INC., priority 2023, published 2026)

Test system: A375-NRAS^Q61K cells
Assay: CTGlo Cell Viability Assay, A375-NRAS^Q61K (A375.11) cells, 96 hours
Format: cell-based, human
Conditions: A375.11 (A375-NRAS^Q61K) cells; for Emax: lowest % viability achieved
In short: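 A375 cells carrying BRAF V600E and NRAS Q61K were seeded at 250 cells/well with a 10-point half-log dose series (max 10 μM final). After 96 h at 37 °C, viability was read as ATP luminescence (CellTiter-Glo), background-subtracted and normalized to DMSO (100%). GI50 from 4-parameter fit; Emax is the lowest % viability.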

SMILES	GI50 (Homo sapiens, 96 h) [nM]	GI50 [nM]	Emax (Homo sapiens, 96 h) [%]
CCN(C)S(=O)(=O)Nc1ccc(F)c(Oc2ccc3ncn([C@H]4COC5(CCN(C6CCC(c7ccc(N[C@H]8CCC(=O)NC8=O)cc7F)CC6)CC5)C4)c(=O)c3c2)c1C#N (single isomer, unassigned) [Compound 3]	< 1000	–	< 50
CCN(C)S(=O)(=O)Nc1ccc(F)c(Oc2ccc3ncn(C4CC5(CCN(C6CCC(c7cc8c(cc7F)c(N7CCC(=O)NC7=O)nn8C)CC6)CC5)C4)c(=O)c3c2)c1C#N (single isomer, unassigned) [Compound 8, 6-[2-cyano-3-[[ethyl(methyl)sulfamoyl]amino]-6-fluoro-phenoxy]-3-[7-[4-[3-(2,4-dioxohexahydropyrimidin-1-yl)-5-fluoro-1-methyl-indazol-6-yl]cyclohexyl]-7-azaspiro[3.5]nonan-2-yl]-4-oxo-quinazoline]	< 1000	–	< 50
CCN(C)S(=O)(=O)Nc1ccc(F)c(Oc2ccc3ncn([C@@H]4C[C@@H]5CN(C6CCC(c7ccc(NC8CCC(=O)NC8=O)cc7F)CC6)C[C@@H]5C4)c(=O)c3c2)c1C#N (single isomer, unassigned) [Compound 21]	1000 to 10000	–	50 to 90
CCN(C)S(=O)(=O)Nc1ccc(F)c(Oc2ccc3ncn([C@H]4CCC5(CCN(C6CCC(c7ccc(NC8CCC(=O)NC8=O)cc7F)CC6)CC5)C4)c(=O)c3c2)c1C#N (single isomer, unassigned) [Compound 24]	< 1000	–	< 50
CCN(C)S(=O)(=O)Nc1ccc(F)c(Oc2ccc3ncn([C@@H]4COC5(CCN(C6CCC(c7cc8c(cc7F)c(N7CCC(=O)NC7=O)nn8C)CC6)CC5)C4)c(=O)c3c2F)c1C#N (single isomer, unassigned) [Compound 46]	< 1000	–	< 50
CCN(C)S(=O)(=O)Nc1ccc(F)c(Oc2ccc3ncc([C@H]4COC5(CCN(C6CCC(c7cc8c(cc7F)c(N7CCC(=O)NC7=O)nn8C)CC6)CC5)C4)nc3c2)c1C#N (single isomer, unassigned) [Compound 48]	< 1000	–	< 50
CCN(C)S(=O)(=O)Nc1ccc(F)c(Oc2ccc3ncn([C@@H]4COC5(CCN(C6CCC(c7ccc(NC8CCC(=O)NC8=O)cc7F)CC6)CC5)C4)c(=O)c3c2F)c1C#N (single isomer, unassigned) [Compound 52]	–	> 10000	50 to 90
CN(CCO)S(=O)(=O)Nc1ccc(F)c(Oc2ccc3ncn([C@H]4COC5(CCN(C6CCC(c7cc8c(cc7F)c(N7CCC(=O)NC7=O)nn8C)CC6)CC5)C4)c(=O)c3c2)c1C#N (single isomer, unassigned) [Compound 73]	1000 to 10000	–	< 50
CCN(C)S(=O)(=O)Nc1ccc(F)c(Oc2ccc3ncn([C@H]4COC5(CCN(C6CCC(c7ccc(NC8CCC(=O)NC8=O)cc7F)CC6)CC5)C4)c(=O)c3c2)c1F (single isomer, unassigned) [Compound 78]	< 1000	–	< 50
CN(CCO)S(=O)(=O)Nc1ccc(F)c(Oc2ccc3ncn(C4CC5(CCN(C6CCC(c7ccc(NC8CCC(=O)NC8=O)cc7F)CC6)CC5)C4)c(=O)c3c2)c1C#N (single isomer, unassigned) [Compound 79, 6-[2-cyano-6-fluoro-3-[[2-hydroxyethyl(methyl)sulfamoyl]amino]phenoxy]-3-[7-[4-[4-[(2,6-dioxo-3-piperidyl)amino]-2-fluoro-phenyl]cyclohexyl]-7-azaspiro[3.5]nonan-2-yl]-4-oxo-quinazoline]	–	1000 to 10000	50 to 90
CN(CCO)S(=O)(=O)Nc1ccc(F)c(Oc2ccc3ncn(C4CC5(CCN(C6CCC(c7cc8c(cc7F)c(N7CCC(=O)NC7=O)nn8C)CC6)CC5)C4)c(=O)c3c2)c1C#N (single isomer, unassigned) [Compound 81, 6-[2-cyano-6-fluoro-3-[[2-hydroxyethyl(methyl)sulfamoyl]amino]phenoxy]-3-[7-[4-[3-(2,4-dioxohexahydropyrimidin-1-yl)-5-fluoro-1-methyl-indazol-6-yl]cyclohexyl]-7-azaspiro[3.5]nonan-2-yl]-4-oxo-quinazoline]	1000 to 10000	–	50 to 90
CCN(C)S(=O)(=O)Nc1ccc(F)c(Nc2ccc3ncn([C@@H]4COC5(CCN(C6CCC(c7ccc(NC8CCC(=O)NC8=O)cc7F)CC6)CC5)C4)c(=O)c3c2F)c1C#N (single isomer, unassigned) [Compound 90]	< 1000	–	50 to 90
CC(C)S(=O)(=O)Nc1ccc(F)c(Oc2ccc3ncn([C@H]4COC5(CCN(C6CCC(c7ccc(NC8CCC(=O)NC8=O)cc7F)CC6)CC5)C4)c(=O)c3c2)c1C#N (single isomer, unassigned) [Compound 92]	< 1000	–	< 50
CC(C)S(=O)(=O)Nc1ccc(F)c(Oc2ccc3ncn(C4CC5(CCN(C6CCC(c7cc8c(cc7F)c(N7CCC(=O)NC7=O)nn8C)CC6)CC5)C4)c(=O)c3c2)c1C#N (single isomer, unassigned) [Compound 95, N-[2-cyano-3-[3-[7-[4-[3-(2,4-dioxohexahydropyrimidin-1-yl)-5-fluoro-1-methyl-indazol-6-yl]cyclohexyl]-7-azaspiro[3.5]nonan-2-yl]-4-oxo-quinazolin-6-yl]oxy-4-fluoro-phenyl]propane-2-sulfonamide]	< 1000	–	50 to 90
CO[C@@H]1CCN(S(=O)(=O)Nc2ccc(F)c(Oc3ccc4ncn(C5CC6(CCN(C7CCC(c8cc9c(cc8F)c(N8CCC(=O)NC8=O)nn9C)CC7)CC6)C5)c(=O)c4c3)c2C#N)C1 (single isomer, unassigned) [Compound 101]	< 1000	–	< 50

The next lines start with results.

GI50 (Homo sapiens, 96 h) [nM]	GI50 [nM]	SMILES	Emax (Homo sapiens, 96 h) [%]
< 1000	–	CCN(C)S(=O)(=O)Nc1ccc(F)c(Oc2ccc3ncn([C@H]4COC5(CCN(C6CCC(c7ccc(N[C@@H]8CCC(=O)NC8=O)cc7F)CC6)CC5)C4)c(=O)c3c2)c1C#N (single isomer, unassigned) [Compound 4]	< 50
< 1000	–	CCN(C)S(=O)(=O)Nc1ccc(F)c(Oc2ccc3ncn(C4CC5(CCN(C6CCC(c7ccc(NC8CCC(=O)NC8=O)cc7F)CC6)CC5)C4)c(=O)c3c2)c1C#N (single isomer, unassigned) [Compound 6, 6-[2-cyano-3-[[ethyl(methyl)sulfamoyl]amino]-6-fluoro-phenoxy]-3-[7-[4-[4-[(2,6-dioxo-3-piperidyl)amino]-2-fluoro-phenyl]cyclohexyl]-7-azaspiro[3.5]nonan-2-yl]-4-oxo-quinazoline]	< 50
< 1000	–	CCN(C)S(=O)(=O)Nc1ccc(F)c(Oc2ccc3ncn([C@H]4COC5(CCN(C6CCC(c7cc8c(cc7F)c(N7CCC(=O)NC7=O)nn8C)CC6)CC5)C4)c(=O)c3c2F)c1C#N (single isomer, unassigned) [Compound 41]	< 50
< 1000	–	CCN(C)S(=O)(=O)Nc1ccc(F)c(Oc2ccc3ncn([C@H]4COC5(CCN(C6CCC(c7cc8c(cc7F)c(N7CCC(=O)NC7=O)nn8C)CC6O)CC5)C4)c(=O)c3c2)c1C#N (single isomer, unassigned) [Compound 43]	50 to 90
< 1000	–	CCN(C)S(=O)(=O)Nc1ccc(F)c(Oc2ccc3ncn([C@H]4COC5(CCN(C6CCC(c7ccc(NC8CCC(=O)NC8=O)cc7F)CC6)CC5)C4)c(=O)c3c2F)c1C#N (single isomer, unassigned) [Compound 50]	< 50
< 1000	–	CCN(C)S(=O)(=O)Nc1ccc(F)c(Oc2ccc3ncc([C@H]4COC5(CCN(C6CCC(c7ccc(NC8CCC(=O)NC8=O)cc7F)CC6)CC5)C4)nc3c2)c1C#N (single isomer, unassigned) [Compound 58]	< 50
< 1000	–	CCN(C)S(=O)(=O)Nc1ccc(F)c(Oc2ccc3ncn([C@H]4COC5(CCN(C6CC(c7ccc(NC8CCC(=O)NC8=O)cc7F)C6)CC5)C4)c(=O)c3c2)c1C#N (single isomer, unassigned) [Compound 62]	< 50
–	1000 to 10000	CCN(C)S(=O)(=O)Nc1ccc(F)c(Nc2ccc3ncn([C@H]4COC5(CCN(C6CCC(c7cc8c(cc7F)c(N7CCC(=O)NC7=O)nn8C)CC6)CC5)C4)c(=O)c3c2)c1C#N (single isomer, unassigned) [Compound 64]	50 to 90
< 1000	–	CCN(C)S(=O)(=O)Nc1ccc(F)c(Nc2ccc3ncn([C@H]4COC5(CCN(C6CCC(c7cc8c(cc7F)c(N7CCC(=O)NC7=O)nn8C)CC6)CC5)C4)c(=O)c3c2F)c1C#N (single isomer, unassigned) [Compound 67]	< 50
< 1000	–	CCN(C)S(=O)(=O)Nc1ccc(F)c(Oc2ccc3ncn([C@H]4COC5(CCN(C6CCC(c7cc8c(cc7F)c(N7CCC(=O)NC7=O)nn8C)CC6)CC5)C4)c(=O)c3c2)c1F (single isomer, unassigned) [Compound 71]	< 50
< 1000	–	CN(CCO)S(=O)(=O)Nc1ccc(F)c(Oc2ccc3ncn([C@H]4COC5(CCN(C6CCC(c7ccc(NC8CCC(=O)NC8=O)cc7F)CC6)CC5)C4)c(=O)c3c2)c1C#N (single isomer, unassigned) [Compound 76]	< 50
< 1000	–	CC(C)S(=O)(=O)Nc1ccc(F)c(Oc2ccc3ncn([C@H]4COC5(CCN(C6CCC(c7cc8c(cc7F)c(N7CCC(=O)NC7=O)nn8C)CC6)CC5)C4)c(=O)c3c2)c1C#N (single isomer, unassigned) [Compound 87]	< 50
< 1000	–	CO[C@@H]1CCN(S(=O)(=O)Nc2ccc(F)c(Oc3ccc4ncn([C@H]5COC6(CCN(C7CCC(c8cc9c(cc8F)c(N8CCC(=O)NC8=O)nn9C)CC7)CC6)C5)c(=O)c4c3)c2C#N)C1 (single isomer, unassigned) [Compound 100]	< 50
–	> 10000	CO[C@H]1CCN(S(=O)(=O)Nc2ccc(F)c(Oc3ccc4ncn(C5CC6(CCN(C7CCC(c8cc9c(cc8F)c(N8CCC(=O)NC8=O)nn9C)CC7)CC6)C5)c(=O)c4c3)c2C#N)C1 (single isomer, unassigned) [Compound 103]	50 to 90
